1 compound from BindingDB's records for patent US10308652 (Bristol-Myers Squibb, 2019) can be followed below.

pIC50: −log10 of the molar value. Where only a bound is given, the exact number is not on record here.

For this experiment, the target named is Tumor necrosis factor (Homo sapiens, UniProt P01375). The experiment can be described thus: TNF induced HEK-Blue assay. The method, then: Test compounds serially diluted in DMSO were plated in an assay plate (Labcyte, Cat. #LP-0200) at final concentrations ranging from 0.004 μM to 25μM. TNFα (final concentration 0.5 ng/ml) or CD4OL (final concentration 30 ng/ml) in assay buffer [DMEM, 4.5 g/l glucose (Gibco, Cat. 21063-029), 10% FBS (Sigma, F4135), 1% Penicillin-Streptomycin (Gibco, Cat. 15140-122), 1% Anti-Anti (Gibco, Cat. 15240-112) and 2 mM L-glutamine (Gibco, Cat. 25030-081)] was then added to the assay plate. After a 30 minute pre-incubation at 37° C. and 5% CO2, HEK-Blue-CD40L cells (InvivoGen, Cat. Code hkb-cd40) containing a NF-κB-driven secreted alkaline phosphatase reporter gene were seeded into the assay plate at a density of 20,000 cells per well. This plate was then incubated for 18 h at 37° C. and 5% CO2. Secreted alkaline phosphatase expression was measured using QUANTI-Blue (InvivoGen, Cat. Code rep-qb1) according to manufacturer's specifications and the assay plate was read on a PerkinElmer Envision at 620 nm.
Tumor necrosis factor, sequence (P01375 whole entry): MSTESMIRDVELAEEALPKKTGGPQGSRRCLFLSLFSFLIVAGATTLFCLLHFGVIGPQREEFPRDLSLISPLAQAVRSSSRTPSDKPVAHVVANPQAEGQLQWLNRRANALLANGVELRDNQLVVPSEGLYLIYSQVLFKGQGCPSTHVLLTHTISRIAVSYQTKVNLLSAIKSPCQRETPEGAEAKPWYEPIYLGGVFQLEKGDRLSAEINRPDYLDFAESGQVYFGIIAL

By pIC50 is commonly meant the negative decadic logarithm of the IC50, by convention in mol/L. The low end stands for a high IC50, the high end for a low IC50. For the compound `CC(C)(O)c1ccc(-c2ccc3nc4c(n3n2)[C@@H](c2ccccc2OC(F)F)NC[C@H]4O)cc1` [US10308652, Example 6], the pIC50 was > 6.00.
